Test results taken from patent publication US11226337B2, “Chemoproteomic profiling of protein electrophilic and oxidative post-translational modifications” (Zenagem, LLC, priority 2017, dated 2022).

Key:
[1] = biological target: T1, DENR Densityregulated protein (O43583) (Homo sapiens, UniProt O43583); assay: SILAC RP-ABPP; assay type: cell-based; conditions: SILAC H/L
T1 construct: In Situ Labelling of Cells with Hydrazine Probes for MS Experiments; endogenous in cells; host or cells: HEK293T and/or MDA-MB-231
T1 sequence (O43583 1-198): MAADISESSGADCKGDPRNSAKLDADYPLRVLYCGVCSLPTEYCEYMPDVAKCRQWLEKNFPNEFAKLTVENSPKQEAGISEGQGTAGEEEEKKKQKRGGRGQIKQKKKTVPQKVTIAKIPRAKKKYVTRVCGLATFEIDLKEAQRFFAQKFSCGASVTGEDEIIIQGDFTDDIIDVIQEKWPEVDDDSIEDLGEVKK
Protocol: For MS-based experiments, labelling was performed in a similar manner as described above in Example 2, maintaining the same concentrations of probes. Modifications to this protocol included using isotopically ‘light’ and ‘heavy’ SILAC cells that were also grown to near complete confluence prior to treatment. Isotopically light cells were treated with the non-clickable hydrazine probe (at the same concentration as the probe in ‘enrichment’ experiments) or the probe in the presence of 10-fold excess non-clickable hydrazine probe as a competitor (in ‘competition’ experiments). Isotopically heavy cells were treated with the probe for both types of experiments. These treatments were performed in non-SILAC media. Following treatments, cells were washed with cold PBS to remove the probe-containing media, harvested by scraping, collected by centrifugation (1,400 g, 3 min, 4° C.), washed again by resuspension in cold PBS and frozen as pellets at −80° C. until use.
The fractionated equimolar mixture of heavy and light soluble proteomes (1-1.5 mg) was diluted to 1 mL in PBS. Click reactions were scaled accordingly (except for biotin-azide) to maintain final concentrations of 0.1 mM TBTA, 1 mM CuSO4, 100 μM biotin-azide (10 mM in DMSO) and 1 mM TCEP. The mixture was vortexed and placed on a rotator at ambient temperature for 1 hour. Sequential addition of and mixture with pre-chilled methanol (MeOH, 2 mL), chloroform (CHCl3, 0.5 mL) and PBS (1 mL) on ice quenched the reaction. The precipitated proteome was centrifuged (5,000 g, 10 min, 4° C.) to fractionate the protein interphase from the organic and aqueous solvent layers. The protein pellet was washed with cold 1:1 MeOH:CHCl3 (3×1 mL), mildly sonicated in cold 4:1 MeOH:CHCl3 (2.5 mL) and pelleted once more by centrifugation (5,000 g, 10 min, 4° C.) to ensure click reagents were efficiently removed.
Heavy and light parent ion chromatograms associated with successfully identified peptides were extracted and compared using CIMAGE software as previously described^69. At least one ion of a co-eluting heavy-light pair must be accurately identified from a fragmentation event that occurred within the retention time window (±10 min) of parent ion elution. To ensure that the correct pair of peaks is quantified, chromatograms are extracted within a 10 ppm error tolerance of the predicted m/z, the signal-to-noise ratio must be >2.5 and the ‘co-elution correlation score’ and ‘envelope correlation score’ must have R^2 values ≥0.8. In addition, peptides detected as ‘singletons,’ where only the heavy ion of a peptide pair was identified, but for which passed all other filtering parameters, are given a default assigned ratio of ‘20,’ which is defined as any measured ratio that is ≥20.
To further eliminate false positives and any stochastic variability in the data, protein ratios were then determined by the median peptide ratio derived from three or more unique quantified peptides. Protein ratios that complied with these criteria from a single experiment were then averaged with ratios acquired from ≥3 replicates to provide final values for each type of experiment in both cell lines with both probes. […] Most importantly, there are no robustly measured ratios for proteins identified as probe 1 targets that had measured ratios of ˜1 with probe 2. Probe targets in HEK293T and MDA-MB-231 cells represent data combined from ≥3 independent biological replicates with each cell type performed with several independent batches of synthesized probes over a period of almost two years.
Analogous experiments were also performed with the aryl hydrazine probe 2 (1 mM, 0.5 hour), which furnished a larger list of high-reactivity proteins (33 in total; Table 3) that contained several of the targets of probe 1 (compared in Table 4), as well as additional proteins that may reflect an expanded chemical reactivity for probe 2.

[2] = biological target: T2, MAN2B1 Lysosomal alphamannosidase (O00754) (Homo sapiens, UniProt O00754); assay: SILAC RP-ABPP; assay type: cell-based; conditions: SILAC H/L, MDA-MB-231
T2 construct: shared by both the endogenous and recombinant forms of these proteins; endogenous in cells; host or cells: HEK293T and MDA-MB-231
T2 sequence (O00754 50-1011): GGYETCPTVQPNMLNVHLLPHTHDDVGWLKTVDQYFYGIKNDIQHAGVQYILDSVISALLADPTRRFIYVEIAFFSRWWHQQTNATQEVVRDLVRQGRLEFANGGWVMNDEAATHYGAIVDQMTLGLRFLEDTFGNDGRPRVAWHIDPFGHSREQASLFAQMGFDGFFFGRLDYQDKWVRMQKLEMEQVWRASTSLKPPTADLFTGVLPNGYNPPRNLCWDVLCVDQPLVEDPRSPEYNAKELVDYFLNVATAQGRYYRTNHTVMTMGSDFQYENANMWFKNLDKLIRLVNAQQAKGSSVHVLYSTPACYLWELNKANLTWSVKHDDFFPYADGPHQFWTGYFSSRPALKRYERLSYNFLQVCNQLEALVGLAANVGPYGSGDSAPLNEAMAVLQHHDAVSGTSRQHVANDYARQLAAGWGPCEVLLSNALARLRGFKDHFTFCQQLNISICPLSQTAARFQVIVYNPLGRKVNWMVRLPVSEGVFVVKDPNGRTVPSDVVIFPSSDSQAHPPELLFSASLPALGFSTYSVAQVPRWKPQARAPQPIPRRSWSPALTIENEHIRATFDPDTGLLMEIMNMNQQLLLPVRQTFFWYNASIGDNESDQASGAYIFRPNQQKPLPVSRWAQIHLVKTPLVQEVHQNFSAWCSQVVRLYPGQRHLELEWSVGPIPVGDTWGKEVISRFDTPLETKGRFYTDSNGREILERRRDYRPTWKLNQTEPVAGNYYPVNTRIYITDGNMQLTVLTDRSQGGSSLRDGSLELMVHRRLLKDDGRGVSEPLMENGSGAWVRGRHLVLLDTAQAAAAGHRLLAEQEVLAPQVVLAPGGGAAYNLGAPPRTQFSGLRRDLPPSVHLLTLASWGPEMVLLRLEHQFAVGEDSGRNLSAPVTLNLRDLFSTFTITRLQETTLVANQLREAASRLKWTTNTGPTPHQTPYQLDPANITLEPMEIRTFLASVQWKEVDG

| enrichment ratioavg ([1]; probe 2 1 mM 0.5 h vs probe 4, MDA-MB-231) | competition ratioavg ([1]; probe 2 vs probe 2+10x probe 4, MDA-MB-231) | enrichment ratioavg ([2]; probe 2 1 mM 0.5 h vs probe 4) | competition ratioavg ([2]; probe 2 vs probe 2+10x probe 4) | SMILES | competition ratioavg ([1]; probe 1 vs probe 1+10x probe 3, cell line not given) | enrichment ratioavg ([2]; probe 1 3 mM 0.5 h vs probe 3) | competition ratioavg ([2]; probe 1 vs probe 1+10x probe 3) |
| --- | --- | --- | --- | --- | --- | --- | --- |
| 20 | 5 | 20 | 4 | C#CCCNC(=O)c1ccc(NN)cc1.Cl [probe 2, N-(but-3-yn-1-yl)-4-hydrazinylbenzamide hydrochloride] |  |  |  |
|  |  |  |  | C#CCNN.Cl [probe 1, prop-2-yn-1-ylhydrazine hydrochloride] | 1 | 20 | 8 |
